Test results: PMC6273621, “Synthesis and the Biological Activity of Phosphonylated 1,2,3-Triazolenaphthalimide Conjugates” (Molecules, 2016)
Like-named read-outs stand apart in the source and are kept apart here.

Legend:
[1] = Cytotoxicity, cell growth (CC50) in HEL cells; type: cell-based; conditions: human, concentration reducing cell growth by 50%
TK+ VZV strain = assay: microbe, parasite or virus in culture; type: cell-based, varicella-zoster virus (VZV) strain Oka; conditions: concentration reducing virus plaque formation by 50%
TK− VZV strain = assay: microbe, parasite or virus in culture; type: cell-based, varicella-zoster virus (VZV) strain 07−1; conditions: concentration reducing virus plaque formation by 50%
HEL cells = assay: Cytotoxicity, cell morphology (MCC) in HEL cells; type: cell-based, human; conditions: minimum cytotoxic concentration causing microscopically detectable alteration of cell morphology
Description: The cytotoxicity of the tested compounds toward the uninfected host cells was defined as the minimum cytotoxic concentration (MCC) that causes a microscopically detectable alteration of normal cell morphology.

Compound	CC50 ([1]; HEL cells (uninfected))	EC50 (TK+ VZV strain; Human alphaherpesvirus 3, HEL, read-out: Antiviral Activity EC50, TK+ VZV Strain, HEL cell cultures)	EC50 (TK+ VZV strain; read-out: Antiviral Activity EC50, TK+ VZV Strain, HEL cell cultures)	EC50 (TK− VZV strain; Human alphaherpesvirus 3, HEL, read-out: Antiviral Activity EC50, TK− VZV Strain, HEL cell cultures)	EC50 (TK− VZV strain; read-out: Antiviral Activity EC50, TK− VZV Strain, HEL cell cultures)	Cytotoxicity, Cell Morphology (MCC) (HEL cells)	CC50 [1]
Nc1nc2c(ncn2COCCO)c(=O)[nH]1 [Acyclovir]	> 440 µM	–	–	–	–	–	–
O=c1[nH]c(=O)n([C@H]2C[C@H](O)[C@@H](CO)O2)cc1/C=C/Br [Brivudin, reference compound]	–	0.013 µM	0.0078 µM	24.9 µM	13.7 µM	>300 μM	> 300 µM
